What was measured:
c-MER = target: T1, c-MER (Homo sapiens, UniProt Q12866); assay: HotSpot Kinase Assay, c-MER
T1 sequence (Q12866 21-999): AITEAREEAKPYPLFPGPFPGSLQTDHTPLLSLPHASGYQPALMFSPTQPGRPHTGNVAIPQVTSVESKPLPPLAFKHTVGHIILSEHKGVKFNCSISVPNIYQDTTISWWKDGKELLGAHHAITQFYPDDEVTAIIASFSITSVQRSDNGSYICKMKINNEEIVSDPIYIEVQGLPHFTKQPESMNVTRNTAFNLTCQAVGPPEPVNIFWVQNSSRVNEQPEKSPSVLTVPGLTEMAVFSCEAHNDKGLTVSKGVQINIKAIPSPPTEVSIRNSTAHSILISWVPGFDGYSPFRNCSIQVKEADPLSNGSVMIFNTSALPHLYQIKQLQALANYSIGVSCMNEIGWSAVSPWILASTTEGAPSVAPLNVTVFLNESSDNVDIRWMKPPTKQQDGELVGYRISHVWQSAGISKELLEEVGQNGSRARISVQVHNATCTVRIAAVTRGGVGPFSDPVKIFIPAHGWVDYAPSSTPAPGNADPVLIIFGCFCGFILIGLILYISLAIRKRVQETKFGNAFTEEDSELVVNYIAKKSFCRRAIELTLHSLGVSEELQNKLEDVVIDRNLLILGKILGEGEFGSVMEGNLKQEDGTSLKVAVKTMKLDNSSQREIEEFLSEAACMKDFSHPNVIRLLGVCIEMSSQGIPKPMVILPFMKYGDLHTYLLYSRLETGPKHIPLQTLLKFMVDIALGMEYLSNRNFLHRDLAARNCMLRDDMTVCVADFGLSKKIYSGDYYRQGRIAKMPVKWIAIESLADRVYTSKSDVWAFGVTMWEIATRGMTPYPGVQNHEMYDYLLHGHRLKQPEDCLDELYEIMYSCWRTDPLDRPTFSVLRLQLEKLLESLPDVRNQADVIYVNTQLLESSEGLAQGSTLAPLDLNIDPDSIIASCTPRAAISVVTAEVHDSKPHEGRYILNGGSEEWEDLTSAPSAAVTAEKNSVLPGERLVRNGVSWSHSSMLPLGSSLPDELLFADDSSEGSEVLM
Experimental: (§1) Specifically, for each reaction, kinase and substrate were mixed in a pH 7.5 buffer containing 20 mM HEPES, 10 mM MgCl2, 1 mM EGTA [Ethylene glycol-bis(2-aminoethylether)-N,N,N′,N′-tetraacetic acid], 0.02% Brij35, 0.02 mg/mL BSA (Bovine Serum Albumin), 0.1 mM Na3VO4, 2 mM DTT, and 1% DMSO. Compounds were then added to each reaction mixture. After a 20-min incubation, ATP (Sigma-Aldrich) and [γ-^33P] ATP (PerkinElmer) were added at a final total concentration of 100 μM. Reactions were carried out at room temperature for 2 hours and spotted onto P81 ion exchange cellulose chromatography paper (Whatman). […] The percent remaining kinase activity relative to a vehicle-containing (DMSO) kinase reaction was calculated for each kinase/inhibitor pair. […] IC50 values were calculated using Prism 5 (GraphPad).

LOK/STK10 = LOK/STK10 (Homo sapiens, UniProt O94804); assay: HotSpot Kinase Assay, LOK/STK10
Experimental: as §1

TYRO3/SKY = target: T2, TYRO3/SKY (Homo sapiens, UniProt Q06418); assay: HotSpot Kinase Assay, TYRO3/SKY
T2 sequence (Q06418 41-890): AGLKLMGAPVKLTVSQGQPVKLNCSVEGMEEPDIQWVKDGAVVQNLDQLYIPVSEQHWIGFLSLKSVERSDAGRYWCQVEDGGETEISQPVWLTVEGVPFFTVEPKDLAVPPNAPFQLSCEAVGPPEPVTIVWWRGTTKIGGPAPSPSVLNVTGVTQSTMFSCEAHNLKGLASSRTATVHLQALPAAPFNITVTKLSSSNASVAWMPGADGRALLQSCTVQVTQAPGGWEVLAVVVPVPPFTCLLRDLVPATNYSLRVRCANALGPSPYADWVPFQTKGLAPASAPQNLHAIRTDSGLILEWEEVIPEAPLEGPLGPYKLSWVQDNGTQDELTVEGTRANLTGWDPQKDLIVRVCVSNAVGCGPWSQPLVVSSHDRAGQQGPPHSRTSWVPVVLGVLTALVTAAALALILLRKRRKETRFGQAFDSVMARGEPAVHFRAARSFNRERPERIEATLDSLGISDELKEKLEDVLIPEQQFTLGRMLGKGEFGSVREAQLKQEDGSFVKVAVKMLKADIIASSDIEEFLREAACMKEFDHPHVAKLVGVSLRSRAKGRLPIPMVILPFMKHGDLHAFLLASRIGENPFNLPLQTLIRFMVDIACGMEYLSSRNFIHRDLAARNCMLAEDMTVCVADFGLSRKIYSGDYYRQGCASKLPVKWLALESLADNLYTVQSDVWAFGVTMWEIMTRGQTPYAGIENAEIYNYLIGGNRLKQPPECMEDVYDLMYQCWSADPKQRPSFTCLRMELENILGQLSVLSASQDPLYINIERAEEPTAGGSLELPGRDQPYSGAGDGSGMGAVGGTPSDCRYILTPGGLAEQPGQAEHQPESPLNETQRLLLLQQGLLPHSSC
Experimental: as §1

c-Kit = c-Kit (Homo sapiens, UniProt P10721); assay: HotSpot Kinase Assay, c-Kit
Experimental: as §1

AXL = target: T3, AXL (Homo sapiens, UniProt P30530); assay: HotSpot Kinase Assay, AXL
T3 sequence (P30530 26-894): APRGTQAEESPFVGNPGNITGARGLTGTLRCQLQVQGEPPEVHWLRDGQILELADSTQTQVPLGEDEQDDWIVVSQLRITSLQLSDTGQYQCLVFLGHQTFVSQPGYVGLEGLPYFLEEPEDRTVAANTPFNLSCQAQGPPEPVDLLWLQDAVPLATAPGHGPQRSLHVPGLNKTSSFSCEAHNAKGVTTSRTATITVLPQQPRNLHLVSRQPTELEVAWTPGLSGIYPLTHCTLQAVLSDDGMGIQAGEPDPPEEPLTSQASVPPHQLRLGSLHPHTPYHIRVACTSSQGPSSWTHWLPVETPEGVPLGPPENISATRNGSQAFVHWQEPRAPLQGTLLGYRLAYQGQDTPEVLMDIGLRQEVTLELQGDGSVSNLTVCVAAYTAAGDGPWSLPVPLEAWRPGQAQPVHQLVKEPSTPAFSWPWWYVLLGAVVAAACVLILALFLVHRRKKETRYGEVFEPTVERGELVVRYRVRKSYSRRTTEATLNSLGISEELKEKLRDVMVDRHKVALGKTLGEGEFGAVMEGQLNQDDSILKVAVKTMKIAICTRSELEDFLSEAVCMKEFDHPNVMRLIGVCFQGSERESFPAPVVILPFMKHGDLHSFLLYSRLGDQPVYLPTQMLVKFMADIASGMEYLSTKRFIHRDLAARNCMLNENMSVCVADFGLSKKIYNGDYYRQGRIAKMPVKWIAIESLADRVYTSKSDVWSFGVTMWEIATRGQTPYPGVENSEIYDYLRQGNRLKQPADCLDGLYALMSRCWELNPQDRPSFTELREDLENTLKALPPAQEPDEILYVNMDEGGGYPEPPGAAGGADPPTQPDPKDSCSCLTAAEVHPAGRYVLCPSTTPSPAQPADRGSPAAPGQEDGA
Experimental: as §1

FMS = FMS (Homo sapiens, UniProt P07333); assay: HotSpot Kinase Assay, FMS
Experimental: as §1

c-MET = c-MET (Homo sapiens, UniProt P08581); assay: HotSpot Kinase Assay, c-MET
Experimental: as §1

DDR1 = DDR1 (Homo sapiens, UniProt Q08345); assay: HotSpot Kinase Assay, DDR1
KDR/VEGFR2 = KDR/VEGFR2 (Homo sapiens, UniProt P35968); assay: HotSpot Kinase Assay, KDR/VEGFR2
Experimental: as §1

EPHA2 = EPHA2 (Homo sapiens, UniProt P29317); assay: HotSpot Kinase Assay, EPHA2
Chain of EPHA2 (P29317 24-976): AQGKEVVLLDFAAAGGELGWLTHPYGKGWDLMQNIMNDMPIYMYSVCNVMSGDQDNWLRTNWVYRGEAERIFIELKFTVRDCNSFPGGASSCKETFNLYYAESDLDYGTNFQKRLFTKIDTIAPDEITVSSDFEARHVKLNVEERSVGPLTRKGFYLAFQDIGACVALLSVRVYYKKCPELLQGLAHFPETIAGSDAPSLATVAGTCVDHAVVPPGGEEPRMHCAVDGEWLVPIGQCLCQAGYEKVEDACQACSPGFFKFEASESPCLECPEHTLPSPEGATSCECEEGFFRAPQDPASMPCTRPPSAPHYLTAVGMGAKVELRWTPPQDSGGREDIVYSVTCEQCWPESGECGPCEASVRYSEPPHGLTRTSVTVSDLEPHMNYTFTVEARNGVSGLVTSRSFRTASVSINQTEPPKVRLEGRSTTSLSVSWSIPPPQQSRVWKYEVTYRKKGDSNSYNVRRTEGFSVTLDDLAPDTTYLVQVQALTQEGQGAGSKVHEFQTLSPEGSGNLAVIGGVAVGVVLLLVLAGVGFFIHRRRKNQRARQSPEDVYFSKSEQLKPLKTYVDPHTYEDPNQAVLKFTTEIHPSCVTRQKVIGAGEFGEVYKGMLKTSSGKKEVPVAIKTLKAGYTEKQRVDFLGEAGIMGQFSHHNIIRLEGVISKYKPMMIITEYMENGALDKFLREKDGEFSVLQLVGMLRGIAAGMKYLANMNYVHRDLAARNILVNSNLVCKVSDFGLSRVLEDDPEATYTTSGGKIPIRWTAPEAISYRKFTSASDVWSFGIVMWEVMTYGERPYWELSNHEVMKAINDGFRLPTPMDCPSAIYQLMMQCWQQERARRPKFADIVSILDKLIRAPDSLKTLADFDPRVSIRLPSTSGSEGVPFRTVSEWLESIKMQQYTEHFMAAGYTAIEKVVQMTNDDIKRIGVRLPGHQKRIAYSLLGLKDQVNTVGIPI
Experimental: as §1

Chain of FMS (P07333 20-972): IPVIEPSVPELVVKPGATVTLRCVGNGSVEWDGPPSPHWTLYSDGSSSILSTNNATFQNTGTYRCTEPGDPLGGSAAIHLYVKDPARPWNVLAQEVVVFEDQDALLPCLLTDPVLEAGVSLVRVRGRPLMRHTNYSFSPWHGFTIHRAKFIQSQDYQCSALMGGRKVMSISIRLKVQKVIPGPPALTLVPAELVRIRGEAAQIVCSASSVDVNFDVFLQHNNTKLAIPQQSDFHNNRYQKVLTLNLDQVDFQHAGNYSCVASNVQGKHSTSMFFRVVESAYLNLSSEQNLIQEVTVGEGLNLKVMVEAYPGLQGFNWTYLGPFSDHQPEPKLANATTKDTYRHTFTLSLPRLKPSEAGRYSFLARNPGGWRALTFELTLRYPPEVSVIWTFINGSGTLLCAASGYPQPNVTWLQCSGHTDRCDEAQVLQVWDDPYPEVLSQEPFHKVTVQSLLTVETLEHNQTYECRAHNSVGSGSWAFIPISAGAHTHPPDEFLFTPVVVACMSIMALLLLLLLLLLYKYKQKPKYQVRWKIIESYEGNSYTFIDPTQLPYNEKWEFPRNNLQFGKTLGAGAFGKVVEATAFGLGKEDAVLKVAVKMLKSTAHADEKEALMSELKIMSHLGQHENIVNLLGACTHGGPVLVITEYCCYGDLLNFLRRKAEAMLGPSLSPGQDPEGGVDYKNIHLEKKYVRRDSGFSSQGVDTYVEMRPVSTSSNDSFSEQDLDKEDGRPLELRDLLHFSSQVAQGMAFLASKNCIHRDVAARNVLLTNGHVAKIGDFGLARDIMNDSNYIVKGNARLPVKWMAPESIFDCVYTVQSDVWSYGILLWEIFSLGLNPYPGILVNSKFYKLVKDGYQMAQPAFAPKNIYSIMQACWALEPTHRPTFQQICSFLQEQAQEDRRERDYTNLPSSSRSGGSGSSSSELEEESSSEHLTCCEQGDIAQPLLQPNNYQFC
Chain of c-Kit (P10721 26-976): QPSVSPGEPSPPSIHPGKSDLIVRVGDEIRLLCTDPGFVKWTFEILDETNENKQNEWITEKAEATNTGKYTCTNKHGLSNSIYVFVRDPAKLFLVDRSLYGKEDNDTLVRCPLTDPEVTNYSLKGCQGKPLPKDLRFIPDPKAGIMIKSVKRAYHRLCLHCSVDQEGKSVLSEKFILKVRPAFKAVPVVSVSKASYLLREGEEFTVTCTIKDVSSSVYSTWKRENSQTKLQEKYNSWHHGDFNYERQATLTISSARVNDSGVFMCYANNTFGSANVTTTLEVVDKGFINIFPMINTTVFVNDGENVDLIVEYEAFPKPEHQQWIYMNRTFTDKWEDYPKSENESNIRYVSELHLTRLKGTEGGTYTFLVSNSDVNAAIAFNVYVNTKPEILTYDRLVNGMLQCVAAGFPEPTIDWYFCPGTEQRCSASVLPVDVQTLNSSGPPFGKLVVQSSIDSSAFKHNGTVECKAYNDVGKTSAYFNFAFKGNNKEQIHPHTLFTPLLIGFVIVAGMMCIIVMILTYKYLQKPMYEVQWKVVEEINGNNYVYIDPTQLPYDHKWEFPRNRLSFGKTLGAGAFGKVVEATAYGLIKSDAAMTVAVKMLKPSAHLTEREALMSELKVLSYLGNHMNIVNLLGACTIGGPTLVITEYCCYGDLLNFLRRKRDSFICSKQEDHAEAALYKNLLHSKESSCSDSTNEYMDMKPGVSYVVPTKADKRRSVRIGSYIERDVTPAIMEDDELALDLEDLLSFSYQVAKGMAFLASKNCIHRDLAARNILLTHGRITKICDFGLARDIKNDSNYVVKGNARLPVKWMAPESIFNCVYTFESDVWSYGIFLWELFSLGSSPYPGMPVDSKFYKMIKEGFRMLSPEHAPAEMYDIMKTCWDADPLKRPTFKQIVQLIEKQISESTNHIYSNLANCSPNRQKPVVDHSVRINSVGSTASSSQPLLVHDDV
Chain of LOK/STK10 (O94804 whole entry): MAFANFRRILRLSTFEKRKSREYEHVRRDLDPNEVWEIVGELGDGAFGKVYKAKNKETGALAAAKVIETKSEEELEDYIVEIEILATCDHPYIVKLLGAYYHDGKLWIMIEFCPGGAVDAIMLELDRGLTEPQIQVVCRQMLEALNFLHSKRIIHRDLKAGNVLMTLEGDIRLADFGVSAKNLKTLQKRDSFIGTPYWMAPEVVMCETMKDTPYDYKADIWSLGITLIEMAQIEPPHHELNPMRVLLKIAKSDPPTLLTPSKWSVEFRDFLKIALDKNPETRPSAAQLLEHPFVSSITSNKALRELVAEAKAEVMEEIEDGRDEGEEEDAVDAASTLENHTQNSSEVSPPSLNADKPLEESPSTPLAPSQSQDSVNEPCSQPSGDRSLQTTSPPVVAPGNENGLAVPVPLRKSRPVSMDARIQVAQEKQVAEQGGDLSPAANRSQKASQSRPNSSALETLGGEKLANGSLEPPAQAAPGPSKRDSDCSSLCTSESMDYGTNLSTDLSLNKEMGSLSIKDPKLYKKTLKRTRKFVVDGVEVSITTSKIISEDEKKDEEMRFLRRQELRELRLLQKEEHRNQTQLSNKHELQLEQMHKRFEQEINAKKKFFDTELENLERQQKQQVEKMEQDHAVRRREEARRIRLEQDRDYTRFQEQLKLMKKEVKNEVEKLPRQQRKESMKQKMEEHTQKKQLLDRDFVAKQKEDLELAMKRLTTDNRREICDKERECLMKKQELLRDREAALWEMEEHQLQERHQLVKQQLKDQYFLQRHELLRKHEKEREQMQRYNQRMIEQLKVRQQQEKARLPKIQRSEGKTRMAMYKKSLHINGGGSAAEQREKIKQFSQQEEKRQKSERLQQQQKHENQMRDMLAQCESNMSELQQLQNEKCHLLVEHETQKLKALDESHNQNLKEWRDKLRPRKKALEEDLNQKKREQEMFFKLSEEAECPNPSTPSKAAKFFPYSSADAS
Chain of DDR1 (Q08345 19-913): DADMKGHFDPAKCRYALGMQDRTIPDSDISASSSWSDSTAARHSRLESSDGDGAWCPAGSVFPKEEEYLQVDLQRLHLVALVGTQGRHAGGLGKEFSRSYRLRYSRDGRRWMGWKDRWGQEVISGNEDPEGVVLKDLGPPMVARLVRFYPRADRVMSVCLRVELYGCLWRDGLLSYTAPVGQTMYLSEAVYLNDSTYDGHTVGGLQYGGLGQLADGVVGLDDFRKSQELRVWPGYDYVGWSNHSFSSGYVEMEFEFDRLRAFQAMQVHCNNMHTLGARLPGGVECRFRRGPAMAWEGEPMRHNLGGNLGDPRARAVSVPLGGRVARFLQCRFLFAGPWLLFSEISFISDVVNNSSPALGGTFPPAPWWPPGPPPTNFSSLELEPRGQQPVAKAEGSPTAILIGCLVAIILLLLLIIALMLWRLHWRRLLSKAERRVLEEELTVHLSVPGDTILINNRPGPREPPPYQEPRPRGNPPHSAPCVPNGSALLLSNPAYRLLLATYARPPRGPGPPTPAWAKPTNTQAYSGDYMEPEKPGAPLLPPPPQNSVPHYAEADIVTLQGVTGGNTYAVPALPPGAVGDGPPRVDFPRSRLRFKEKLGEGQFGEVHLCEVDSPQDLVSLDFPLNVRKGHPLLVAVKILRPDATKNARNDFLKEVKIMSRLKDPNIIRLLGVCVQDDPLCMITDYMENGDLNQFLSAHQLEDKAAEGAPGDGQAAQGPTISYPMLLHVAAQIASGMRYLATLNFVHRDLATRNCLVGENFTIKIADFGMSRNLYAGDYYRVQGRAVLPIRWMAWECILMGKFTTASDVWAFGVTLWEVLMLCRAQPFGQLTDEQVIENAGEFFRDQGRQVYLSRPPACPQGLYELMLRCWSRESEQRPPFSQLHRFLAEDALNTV

| SMILES | IC50 (c-MER) [nM] | IC50 (LOK/STK10) [nM] | IC50 (TYRO3/SKY) [nM] | IC50 (c-Kit) [nM] | IC50 (AXL) [nM] | IC50 (FMS) [nM] | IC50 (c-MET) [nM] | IC50 (DDR1) [nM] | IC50 (KDR/VEGFR2) [nM] | IC50 (EPHA2) [nM] |
| --- | --- | --- | --- | --- | --- | --- | --- | --- | --- | --- |
| COc1cc2nccc(Oc3ccc(NC(=O)C4(C(=O)Nc5ccc(F)cc5)CC4)cc3)c2cc1OC(=O)N1[C@H](C)CN(C)C[C@@H]1C [Compound 7-5] | < 100 | 100 to 1000 | < 100 | < 100 | < 100 | < 100 | < 100 | < 100 | < 100 | 100 to 1000 |
| COc1cc2nccc(Oc3ccc(NC(=O)C4(C(=O)Nc5ccc(F)cc5)CC4)cc3)c2cc1OC(=O)N1CCNCC1(C)C [Compound 7-6] | < 100 | 100 to 1000 | < 100 | < 100 | < 100 | 100 to 1000 | < 100 | < 100 | < 100 | 100 to 1000 |
| COc1cc2nccc(Oc3ccc(NC(=O)C4(C(=O)Nc5ccc(F)cc5)CC4)cc3)c2cc1OC(=O)N1CCN(C)CC1(C)C [Compound 7-7] | < 100 | > 1000 | 100 to 1000 | < 100 | < 100 | 100 to 1000 | < 100 | < 100 | 100 to 1000 | 100 to 1000 |
| COc1cc2c(Oc3ccc(NC(=O)C4(C(=O)Nc5ccc(F)cc5)CC4)cc3)ncnc2cc1OC(=O)N1CCNC[C@H]1C [Compound 8-5] | 100 to 1000 | > 1000 | 100 to 1000 | < 100 | 100 to 1000 | 100 to 1000 | 100 to 1000 | < 100 | > 1000 | > 1000 |
| COc1cc2c(Oc3ccc(NC(=O)C4(C(=O)Nc5ccc(F)cc5)CC4)cc3)ncnc2cc1OC(=O)N1CCN(C)C[C@H]1C [Compound 8-6, 4-(4-(1-((4-fluorophenyl)carbamoyl)cyclopropane-1-carboxamido)phenoxy)-6-methoxyquinazolin-7-yl (R)-2,4-methylpiperazine-1-carboxylate] | 100 to 1000 | > 1000 | 100 to 1000 | 100 to 1000 | 100 to 1000 | 100 to 1000 | 100 to 1000 | < 100 | > 1000 | > 1000 |
| COc1cc2c(Oc3ccc(NC(=O)C4(C(=O)Nc5ccc(F)cc5)CC4)cc3F)ncnc2cc1OC(=O)N1CCNC[C@H]1C [Compound 9-5] | 100 to 1000 | 100 to 1000 | 100 to 1000 | 100 to 1000 | < 100 | 100 to 1000 | < 100 | < 100 | 100 to 1000 | 100 to 1000 |
| COc1cc2c(Oc3ccc(NC(=O)C4(C(=O)Nc5ccc(F)cc5)CC4)cc3F)ncnc2cc1OC(=O)N1CCN(C)C[C@H]1C [Compound 9-6, 4-(2-fluoro-4-(1-((4-fluorophenyl)carbamoyl)cyclopropane-1-carboxamido)phenoxy)-6-methoxyquinazolin-7-yl (R)-2,4-methylpiperazine-1-carboxylate] | < 100 | > 1000 | 100 to 1000 | 100 to 1000 | < 100 | 100 to 1000 | < 100 | < 100 | 100 to 1000 | 100 to 1000 |
| COc1cc2c(Oc3ccc(NC(=O)C4(C(=O)Nc5ccc(F)cc5)CC4)cc3)ccnc2cc1N1CCNC1=O [Compound 10-2] | < 100 | 100 to 1000 | 100 to 1000 | < 100 | < 100 | < 100 | < 100 | < 100 | 100 to 1000 | 100 to 1000 |

Reference: patent US11358949B2, “Carbamate and urea compounds as multikinase inhibitors” (ANGEX PHARMACEUTICAL, INC., priority 2017, dated 2022)
